Results reported in US8431593B2, “Heteroaryl amide derivatives” (H. Lundbeck A/S, priority 2006, dated 2013).
pIC50: −log10 of the molar value.

These compounds were tested against T1, P2X7 receptor (Homo sapiens, UniProt Q99572) (assay: P2X7 calcium mobilization assay, high throughput, antagonist activity (Example 4A)). Conditions: not given.
T1 construct: host or cells: SH-SY5Y
T1 sequence (Q99572 1-595): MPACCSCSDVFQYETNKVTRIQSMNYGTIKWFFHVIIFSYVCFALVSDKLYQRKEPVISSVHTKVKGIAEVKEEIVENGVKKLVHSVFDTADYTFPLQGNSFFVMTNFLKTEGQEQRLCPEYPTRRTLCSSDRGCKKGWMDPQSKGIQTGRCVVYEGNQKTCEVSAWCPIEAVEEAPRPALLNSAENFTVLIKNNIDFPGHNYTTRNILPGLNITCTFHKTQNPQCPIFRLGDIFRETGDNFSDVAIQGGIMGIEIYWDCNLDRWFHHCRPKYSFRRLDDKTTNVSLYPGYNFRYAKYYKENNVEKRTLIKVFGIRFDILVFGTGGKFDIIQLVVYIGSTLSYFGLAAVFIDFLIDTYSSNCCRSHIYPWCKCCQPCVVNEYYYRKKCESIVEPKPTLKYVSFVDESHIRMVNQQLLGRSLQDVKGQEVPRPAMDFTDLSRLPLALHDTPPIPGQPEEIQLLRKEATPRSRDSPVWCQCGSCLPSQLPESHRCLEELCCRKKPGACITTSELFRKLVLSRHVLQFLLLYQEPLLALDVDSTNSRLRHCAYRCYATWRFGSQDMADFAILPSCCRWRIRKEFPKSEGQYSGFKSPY
Assay type: cell-based
In short: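 FLIPR^TETRA calcium read-out: maximum RFU per well minus average no-agonist control, with agonist wells giving the average positive maximum. Cells seeded at 100,000/well one day ahead, dye-loaded 1 h, rinsed, then exposed to compound for 1 h at room temperature.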
`CC(C)CC(CNC(=O)c1cccc2nc(C(=O)N3CCC4(CC3)OCCO4)cn12)c1ccccc1` (stereo not shown) [Compound 263, 2-(1,4-dioxa-8-azaspiro[4.5]dec-8-ylcarbonyl)-N-(4-methyl-2-phenylpentyl)imidazo [1,2-a]pyridine-5-carboxamide] was tested, and the pIC50 was > 5.70.

Same assay, conditions: 50% decrease in the fluorescence response of cells exposed to 80 μM 2′(3′)-O-(4-benzoyl-benzoyl)adenosine 5′-triphosphate; Example 4A; read-out: IC50
For `C[C@@H]1CN(C(=O)Cc2cn3c(C(=O)NC[C@@H]4CC[C@@H]5C[C@H]4C5(C)C)cccc3n2)CCN1` [Compound 564, N-{[(1R,2R,5R)-6,6-dimethylbicyclo[3.1.1]hept-2-yl]methyl}-2-{2-[(3R)-3-methylpiperazin-1-yl]-2-oxoethyl}imidazo[1,2-a]pyridine-5-carboxamide], the pIC50 was > 5.70. For `CN(C)CCN(C(=O)c1cn2c(C(=O)NCC34CC5CC(CC(C5)C3)C4)cccc2n1)C1CCNCC1` [Compound 617, 5-N-(adamantan-1-ylmethyl)-2-N-[2-(dimethylamino)ethyl]-2-N-piperidin-4-ylimidazo[1,2-a]pyridine-2,5-dicarboxamide], the pIC50 was > 5.70. For `CC(C)CC(CNC(=O)c1cccc2nc(CCO)cn12)c1cccnc1` (stereo not shown) [Compound 545, 2-(2-hydroxyethyl)-N-(4-methyl-2-pyridin-3-ylpentyl)imidazo[1,2-a]pyridine-5-carboxamide], the pIC50 was > 5.70. For `CC1(C)[C@H]2CC[C@@H](CNC(=O)c3cccc4nc(C(=O)NCC5CC5)cn34)[C@@H]1C2` [Compound 497, 2-N-(cyclopropylmethyl)-5-N-{[(1S,2R,5S)-6,6-dimethylbicyclo[3.1.1]hept-2-yl]methyl}imidazo[1,2-a]pyridine-2,5-dicarboxamide], the pIC50 was > 5.70. `CC1(C)[C@H]2CC[C@@H](CNC(=O)c3cccc4nc(C(=O)N5CCC(F)(F)CC5)cn34)[C@@H]1C2` [Compound 485, 2-[(4,4-difluoropiperidin-1-yl)carbonyl]-N-{[(1S,2R,5S)-6,6-dimethylbicyclo[3.1.1]hept-2-yl]methyl} imidazo[1,2-a]pyridine-5-carboxamide] was tested, and the pIC50 was > 5.70. `O=C(CC12CC3CC(CC(C3)C1)C2)Nc1cccc2nc(C(=O)N3CCC(CO)CC3)cn12` [Compound 424, 2-adamantan-1-yl-N-(2-{[4-(hydroxymethyl)piperidin-1-yl]carbonyl}imidazo[1,2-a]pyridin-5-yl)acetamide] was tested, and the pIC50 was > 5.70. For `CCOC(=O)C(C)(C)c1cn2c(C(=O)N(C)CC34CC5CC(CC(C5)C3)C4)cccc2n1` [Compound 451, ethyl 2-{5-[(adamantan-1-ylmethyl)(methyl)carbamoyl]imidazo [1,2-a]pyridin-2-yl} -2-methyl-propanoate], the pIC50 was > 5.70.

Same assay, conditions: 50% decrease in the fluorescence response of cells exposed to 80 μM of 2′(3′)-O-(4-benzoyl-benzoyl)adenosine 5′-triphosphate; Example 4A; read-out: IC50
For `CCOC(=O)C(CC(=O)N1CCOCC1)c1cn2c(C(=O)NCC34CC5CC(CC(C5)C3)C4)cccc2n1` (stereo not shown) [Compound 802, ethyl 2-{5-[(adamantan-1-ylmethyl)carbamoyl]imidazo[1,2-a]pyridin-2-yl}-4-morpholin-4-yl-4-oxobutanoate], the pIC50 was > 5.70. In the case of `NCC1CCCN(C(=O)c2cn3c(C(=O)NCC45CC6CC(CC(C6)C4)C5)cccc3n2)C1` (stereo not shown) [Compound 631, N-(adamantan-1-ylmethyl)-2-{[3-(aminomethyl)piperidin-1-yl]carbonyl} imidazo[1,2-a]pyridine-5-carboxamide], the pIC50 was > 5.70.

Same assay, conditions: 50% decrease in the fluorescence response of cells exposed to 80 μM of 2′(3′)-O-(4-benzoyl-benzoyl)adenosine 5′-triphosphate; determined as in Example 4A; read-out: IC50
With `O=C(NCC1(c2ccc(Cl)cc2)CCCCC1)c1cccc2nc(C(Cc3ccccc3)C(=O)O)cn12` (stereo not shown) [Compound 936, 2-[5-({[1-(4-chlorophenyl)cyclohexyl]methyl}carbamoyl)imidazo[1,2-a]pyridin-2-yl]-3-phenylpropanoic acid] the pIC50 was > 5.70. `CCCC(CNC(=O)c1cccc2nc(CC(=O)N3CCC[C@@H](N)C3)cn12)c1ccc(Cl)cc1` (stereo partly drawn) [Compound 929, 2-{2-[(3R)-3-aminopiperidin-1-yl]-2-oxoethyl}-N-[2-(4-chlorophenyl)pentyl] imidazo[1,2-a] pyridine-5-carboxamide] was tested, and the pIC50 was > 5.70. In the case of `CC(C)CC(CNC(=O)c1cccc2nc(CC(=O)N[C@@H]3CCN(C(=O)OC(C)(C)C)C3)cn12)c1ccc(Cl)cc1` (stereo partly shown) [Compound 967, tert-butyl 3-{[(5-{[2-(4-chlorophenyl)-4-methylpentyl]carbamoyl}imidazo[1,2-a]pyridin-2-yl)acetyl]amino} pyrrolidine-1-carboxylate], the pIC50 was > 5.70. For `CC(C)CC(CNC(=O)c1cccc2nc(C(Cc3ccccn3)C(=O)O)cn12)c1ccc(Cl)cc1` (stereo not shown) [Compound 938, 2-(5-{[2-(4-chlorophenyl)-4-methylpentyl]carbamoyl}imidazo[1,2-a]pyridin-2-yl)-3-pyridin-2-ylpropanoic acid], the pIC50 was > 5.70. With `Cc1ccc(C(CNC(=O)c2cccc3nc(Cn4nnc(CCO)n4)cn23)CC(C)C)cc1` (stereo not shown) [Compound 917, 2-{[5-(2-hydroxyethyl)-2H-tetrazol-2-yl]methyl}-N-[4-methyl-2-(4-methylphenyl)pentyl] imidazo [1,2-a]pyridine-5-carboxamide] the pIC50 was > 5.70. For `CC1(C)C2CC[C@@H](CNC(=O)c3cccc4nc(C(F)(F)F)cn34)C1C2` (stereo partly drawn) [Compound 1016, N-{[(2R)-6,6-dimethylbicyclo [3.1.1]hept-2-yl]methyl}-2-(trifluoromethyl) imidazo [1,2-a]pyridine-5-carboxamide], the pIC50 was > 5.70.

Same assay, conditions: P2X7 calcium mobilization, Example 4A; 50% decrease in the fluorescence response of cells exposed to 80 μM of (2′(3′)-O-(4-benzoyl-benzoyl)adenosine 5′-triphosephate); read-out: IC50
With `CC(C)CC(CNC(=O)c1cccc2nc(C(C)N3CCCC3)cn12)c1ccc(Cl)cc1` (stereo not shown) [Compound 1035, N-[2-(4-chlorophenyl)-4-methylpentyl]-2-(1-pyrrolidin-1-ylethyl) imidazo[1,2-a]pyridine-5-carboxamide] the pIC50 was > 5.70.

Same assay, conditions: SH-SY5Y cells; 50% decrease in fluorescence response to 80 μM BzATP; read-out: IC50
For `O=C(NCC12CC3CC(CC(C3)C1)C2)c1cccc2nccn12` [Compound 1, N-(adamantan-1-ylmethyl)imidazo[1,2-a]pyridine-5-carboxamide], the pIC50 was > 5.70. For `COC1CCCN(C(=O)c2cn3c(C(=O)NCC45CC6CC(CC(C6)C4)C5)cccc3n2)C1` (stereo not shown) [Compound 100, N-(adamantan-1-ylmethyl)-2-[(3-methoxypiperidin-1-yl)carbonyl]imidazo[1,2-a]pyridine-5-carboxamide], the pIC50 was > 5.70. `NC(=O)C1CCCN(C(=O)Cc2cn3c(C(=O)NCC45CC6CC(CC(C6)C4)C5)cccc3n2)C1` (stereo not shown) [Compound 50, N-(adamantan-1-ylmethyl)-2-[2-(3-carbamoylpiperidin-1-yl)-2-oxoethyl]imidazo[1,2-a]pyridine-5-carboxamide] was tested, and the pIC50 was > 5.70. For `CC(C)[C@H](CO)NC(=O)c1cn2c(C(=O)NCC34CC5CC(CC(C5)C3)C4)cccc2n1` [Compound 85, 5-N-(adamantan-1-ylmethyl)--[(1R)-1-(hydroxymethyl)-2-methyl-propyl]imidazo[1,2-a]pyridine-2,5-dicarboxamide], the pIC50 was > 5.70. For `CN(C)C(=O)Cc1cn2c(C(=O)NCC34CC5CC(CC(C5)C3)C4)cccc2n1` [Compound 165, N-(adamantan-1-ylmethyl)-2-[2-(dimethylamino)-2-oxoethyl]imidazo[1,2-a]pyridine-5-carboxamide], the pIC50 was > 5.70. `Nc1ccnn1Cc1cn2c(C(=O)NCC34CC5CC(CC(C5)C3)C4)cccc2n1` [Compound 209, N-(adamantan-1-ylmethyl)-2-[(5-amino-1H-pyrazol-1-yl)methyl]imidazo[1,2-a]pyridine-5-carboxamide] was tested, and the pIC50 was > 5.70.

Same assay, conditions: fluorescence response of cells exposed to 80 μM 2′(3′)-O-(4-benzoyl-benzoyl)adenosine 5′-triphosphate; Example 4A; read-out: IC50
In the case of `CCCCN(CCO)C(=O)c1cn2c(NC(=O)CC34CC5CC(CC(C5)C3)C4)cccc2n1` [Compound 412, 5-[(adamantan-l-ylacetyl)amino]-N-butyl-N-(2-hydroxyethyl)imidazo [1,2-a]pyridine-2-carboxamide], the pIC50 was > 5.70. For `O=C(NCC12CC3CC(CC(C3)C1)C2)c1cccc2nc(CS(=O)(=O)CCO)cn12` [Compound 267, N-(adamantan-1-ylmethyl)-2-{[(2-hydroxyethyl)sulfonyl]methyl}imidazo[1,2-a]pyridine-5-carboxamide], the pIC50 was > 5.70. `O=C(O)CCSCc1cn2c(C(=O)NCC34CC5CC(CC(C5)C3)C4)cccc2n1` [Compound 342, 3-[({5-[(adamantan-1-ylmethyl)carbamoyl]imidazo[1,2-a]pyridin-2-yl}methyl)thio] propanoic acid] was tested, and the pIC50 was > 5.70. With `NCCS(=O)(=O)Cc1cn2c(C(=O)NCC34CC5CC(CC(C5)C3)C4)cccc2n1` [Compound 283, N-(adamantan-1-ylmethyl)-2-{[(2-aminoethyl)sulfonyl]methyl}imidazo [1,2-a]pyridine-5-carboxamide] the pIC50 was > 5.70. For `C[C@H](N)C(=O)N[C@@H]1CCN(Cc2cn3c(C(=O)NCC45CC6CC(CC(C6)C4)C5)cccc3n2)C1` [Compound 277, N-(adamantan-1-ylmethyl)-2-{[(3R)-3-(L-alanylamino)pyrrolidin-1-yl]methyl}imidazo[1,2-a]pyridine-5-carboxamide], the pIC50 was > 5.70.
